US9938335B2, “Glucagon and GLP-1 co-agonist compounds” (Eli Lilly and Company, priority 2015, dated 2018)
Converted amounts (≈) assume the structure as drawn. Where two headings read alike, the source gives them in different places. Marks after values point to notes of the source that are not given here. Starred links: 1 amine or outer side, 2 acyl side, 3 side chain; linkers in the order of their positions; H or OH if unused. Non-standard residues stand in square brackets, D forms with d. Residues, ends and D or L forms follow the SMILES beside them. Groups on a side chain read outwards from the residue. *: point of attachment. C18 diacid = O=C(O)CCCCCCCCCCCCCCCCC(=O)*; γGlu = O=C(O)[C@H](CCC(=O)[*:2])N[*:1]; AEEA = NCCOCCOCC(=O)O; Aib = CC(C)(N)C(=O)O

How the values were obtained:
[1] = Solubility (RP-HPLC and HPLC-SEC, 1 week at 4° C.); type: physicochemical
Experimental: Solubility of compounds of the present invention is measured in an Agilent 1100 HPLC, an Agilent 1200 HPLC and a Nanodrop 2000. The following HPLC columns are used:
(a) RP-HPLC: Waters Symmetry Shield C18, 3.6 um, 4.6×100 mm
(b) HPLC-SEC: Tosoh Biosciences, TSK2000SWXL […]
All peptide concentrations are made at 10 mg/mL in the following:
(a) 10 mM Tris pH 8.0+3 mg/mL m-cresol
(b) 10 mM Tris pH 8.0+3 mg/mL m-cresol+150 mM NaCl
(c) 10 mM Tris pH 8.0+3 mg/mL m-cresol+0.02% Tween-20
5 mL of 10 mg/mL peptide dissolved in 10 mM Tris at pH 8.0 is concentrated to approximately 20 mg/mL using Amicon-ultra 3 kDa MWCO devices. The solution is filtered using Millivex 0.22 μM filters (PVDF membrane) and the final concentration is measured by the NanoDrop spectrometer. This stock solution is used to formulate to the final conditions stated above using 3× m-cresol, 10× NaCl, and 100× Tween-20 stock solutions. A 10 mg/mL PBS solution is also prepared by dissolving directly at 5 mg/mL and concentrating using Amicon-ultra 3 kDa MWCO devices.
Each solution is placed in a refrigerator at 4° C. for 1 week, with analysis by RP-HPLC to assess concentration and HPLC-SEC to assess HMW species formation. Analyses completed at T-0 week and T-1 week.
The solubility of Compounds 1-4 was measured essentially as described in this assay.

[2] = test system: DIO mice (C57BL/6); assay: Chronic treatment in DIO mice (body weight, fat, food intake); type: in vivo, mouse
Method in brief: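 C57BL/6 DIO mice aged 5–6 months, individually housed and randomized (N=7/group) on body weight and NMR fat mass, received SC injections on Days 1, 4, 7, 10 and 13. Body weight and food intake were measured before each injection, with fat mass re-measured by NMR at study end. Percent body-weight change was tested by ANOVA/Dunnett vs vehicle (p≤0.05).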

[3] = target: hGLP-1-R (Homo sapiens, UniProt P43220); assay: hGLP-1R Binding Assay (SPA radioligand competition, 293HEK membranes); design: expressed in transfected cells; host or cells: 293HEK, stably transfected with plasmid phD, Hygromycin-selected; crude plasma membranes; conditions: read-out: Ki, nM ± SEM at the hGLP-1-R
Chain of hGLP-1-R (P43220 24-463): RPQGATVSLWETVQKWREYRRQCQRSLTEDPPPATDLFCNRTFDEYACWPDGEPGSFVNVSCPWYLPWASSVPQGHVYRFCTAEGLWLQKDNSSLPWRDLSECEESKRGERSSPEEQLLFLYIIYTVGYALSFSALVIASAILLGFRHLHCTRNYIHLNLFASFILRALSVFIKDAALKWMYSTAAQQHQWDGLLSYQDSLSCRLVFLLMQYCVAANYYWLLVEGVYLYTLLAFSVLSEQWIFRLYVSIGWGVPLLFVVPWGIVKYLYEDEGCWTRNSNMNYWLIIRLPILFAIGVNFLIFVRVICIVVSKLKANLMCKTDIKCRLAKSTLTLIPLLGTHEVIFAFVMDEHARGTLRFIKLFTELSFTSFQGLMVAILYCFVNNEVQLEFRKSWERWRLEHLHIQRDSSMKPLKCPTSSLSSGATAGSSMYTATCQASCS

[4] = test system: DIO mice (C57BL/6); assay: Acute treatment in DIO mice (PCSK9, FGF-21, cholesterol); type: in vivo, mouse; conditions: 30 nmol/kg sc, 16 hours post dose
Experimental: In order to investigate metabolic pathways involved with the treatment of compounds of the present invention independent of weight loss, compounds are tested in DIO mice (C57BL/6) acutely. The mice used are three to four months old on a high fat diet for at least 4 weeks. Animals are individually housed in a temperature-controlled (24° C.) facility with a 12 hour light/dark cycle (lights on 6:00), and free access to food and water. Vehicle or testing compounds were administered to mice by subcutaneous injection at 16:00 the day before the study day. Animals were sacrificed 16 hours later to collect blood via cardia puncture. Statistics are analyzed using ANOVA with Dunnett's comparison for JMP-6. Significance is denoted at p≤0.05 vs vehicle.
Food intake was decreased to a similar level in all treatment groups, which may indicate that changes in cholesterol, PCSK9 and FGF-21 are food-intake independent.

[5] = test system: DIO mice (C57BL/6); assay: Glycemic control in DIO mice; type: in vivo, mouse; conditions: for Blood glucose (mg/dL) post-injection, Mean: male DIO mice, 25 nmol/kg sc once
Experimental: Five to six months old male DIO mice (C57BL/6) from Taconic Biosciences are used in this study. Animals are individually housed in a temperature-controlled (24° C.) facility with a 12 hour light/dark cycle (lights on 6:00), and free access to food and water. After two weeks acclimation to the facility, the mice are randomized to treatment groups (n=7/group) based on their body weight and blood glucose. Mice are injected subcutaneously once with vehicle or compounds (25 nmol/kg). Blood glucose is monitored 2 and 8 hours post-injection and then once a day at 08:00 for 4 days. OGTTs are performed at 44 and 78 hours post the peptide injection. Statistics are analyzed using ANOVA with Dunnett's comparison by JMP 6. Significance is denoted at p≤0.05 vs vehicle.

[6] = target: hGcg-R (Homo sapiens, UniProt P47871); assay: hGcg-R Binding Assay (SPA radioligand competition, 293HEK membranes); conditions: read-out: Ki, nM ± SEM at the hGcg-R
Chain of hGcg-R (P47871 26-477): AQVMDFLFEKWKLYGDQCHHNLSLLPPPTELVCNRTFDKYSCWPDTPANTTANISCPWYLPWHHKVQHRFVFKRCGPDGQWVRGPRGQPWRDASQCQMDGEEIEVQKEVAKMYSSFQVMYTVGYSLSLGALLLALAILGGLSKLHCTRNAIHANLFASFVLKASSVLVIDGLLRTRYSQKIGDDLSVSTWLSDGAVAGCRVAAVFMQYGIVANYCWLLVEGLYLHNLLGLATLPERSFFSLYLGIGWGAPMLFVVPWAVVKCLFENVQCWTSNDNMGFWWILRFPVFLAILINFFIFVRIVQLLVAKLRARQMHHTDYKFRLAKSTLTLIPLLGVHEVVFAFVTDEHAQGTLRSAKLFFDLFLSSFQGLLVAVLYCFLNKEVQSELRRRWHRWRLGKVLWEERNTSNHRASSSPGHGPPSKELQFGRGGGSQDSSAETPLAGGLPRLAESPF

[7] = target: T1, Human Gcg-R (Homo sapiens, UniProt P47871); assay: Functional hGcg-R assay (cAMP HTRF, HEK-293 clonal cell line); type: cell-based
T1 construct: expressed in transfected cells; host or cells: HEK-293 clonal cell line over-expressing the receptor
T1 sequence (P47871 26-477): as above
Experimental: After a 60 minute incubation at room temperature, the resulting increase in intracellular cAMP (adenosine 3′,5′-cyclic monophosphate) is quantitatively determined using the CisBio cAMP Dynamic 2 HTRF Assay Kit (62AM4PEJ). cAMP levels within the cell are detected by adding the cAMP-d2 conjugate in cell lysis buffer (20 μl) followed by the antibody anti-cAMP-Eu^3+-Cryptate, also in cell lysis buffer (20 μl).
A relative EC50 value and percent top (Emax) are derived by non-linear regression analysis using the percent maximal response vs. the concentration of peptide added, fitted to a four-parameter logistic equation (Genedata Screener®).
Means for EC50 are expressed as Geometric means±standard error of the mean (SEM) with the number of replicates (n) indicated in parenthesis. Means for Emax are expressed as the arithmetic mean±standard error. ND signifies that agonist activity was not detected.

[8] = 15 nmol/kg sc every three days for 15 days
[9] = 30 nmol/kg sc every three days for 15 days

CC(C)C[C@H](NC(=O)[C@H](CC(C)C)NC(=O)[C@H](Cc1c[nH]c2ccccc12)NC(=O)[C@H](CCC(=O)O)NC(=O)[C@@H](NC(=O)[C@H](Cc1ccccc1)NC(=O)[C@H](CCC(=O)O)NC(=O)[C@H](CCCCNC(=O)COCCOCCNC(=O)COCCOCCNC(=O)CC[C@H](NC(=O)CC[C@H](NC(=O)CCCCCCCCCCCCCCCCC(=O)O)C(=O)O)C(=O)O)NC(=O)[C@H](C)NC(=O)[C@H](CCCCN)NC(=O)[C@H](CCCCN)NC(=O)[C@H](CCC(=O)O)NC(=O)[C@H](CC(=O)O)NC(=O)[C@H](CC(C)C)NC(=O)[C@H](Cc1ccc(O)cc1)NC(=O)[C@H](CCCCN)NC(=O)[C@H](CO)NC(=O)[C@H](Cc1ccc(O)cc1)NC(=O)[C@H](CC(=O)O)NC(=O)[C@H](CO)NC(=O)[C@@H](NC(=O)[C@H](Cc1ccccc1)NC(=O)[C@@H](NC(=O)CNC(=O)[C@H](CCC(N)=O)NC(=O)C(C)(C)NC(=O)[C@@H](N)Cc1c[nH]cn1)[C@@H](C)O)[C@@H](C)O)C(C)C)C(=O)N[C@@H](CO)C(=O)NCC(=O)NCC(=O)N1CCC[C@H]1C(=O)N[C@@H](CO)C(=O)N[C@@H](CO)C(=O)NCC(N)=O [Compound 3] (H-H[Aib]QGTFTSDYSKYLDEKKAK([AEEA-AEEA-γGlu-γGlu-C18 diacid])EFVEWLLSGGPSSG-NH2; N-terminus assumed)
solubility at 1 week ([1]; 10 mM Tris pH 8.0 + 3 mg/mL m-cresol + 0.02% Tween-20, Tris pH 8 + 3 mg/mL m-cresol + 0.02% Tween-20): 10000 µg/mL | solubility at 1 week ([1]; 10 mM Tris pH 8.0 + 3 mg/mL m-cresol + 150 mM NaCl, Tris pH 8 + 3 mg/mL m-cresol + 150 mm NaCl): 10000 µg/mL | solubility at 1 week ([1]; 10 mM Tris pH 8.0 + 3 mg/mL m-cresol, Tris pH 8 + 3 mg/mL m-cresol): 10000 µg/mL | HMW species formation by SEC-HPLC ([1]; 1 week at 4° C.): No observed HMW species formation by SEC-HPLC; | solubility at 1 week ([1]; PBS pH 7.4, pH 7.4, read-out: solubility in PBS, pH 7.4): 10000 µg/mL (≈ 2160 µM) | visible precipitation or phase separation ([1]; after 1 week storage at 4° C.): No visible precipitation or phase separation observed after 1 week | Body Fat (% change vs. vehicle from Day 1) [2, 8]: −32* % | Body Weight (% change vs. vehicle from Day 1) [2, 8]: −17* % | Body Fat (% change vs. vehicle from Day 1) [2, 9]: −67* % | Body Weight (% change vs. vehicle from Day 1) [2, 9]: −37* % | Ki [3]: 8.68 ± 1.6 nM | Cholesterol (% of vehicle) [4]: 55.6* % of vehicle | FGF-21 (% of vehicle) [4]: 1124* % of vehicle | PCSK9 (% of vehicle) [4]: 15.6* % of vehicle | 44 hours Glucose AUC (% of Vehicle) ([5]; OGTT 44 hours post-injection, 25 nmol/kg sc): 35* % of Vehicle | 78 hours Glucose AUC (% of Vehicle) ([5]; OGTT 78 hours post-injection, 25 nmol/kg sc): 76* % of Vehicle | glucose excursions post an oral glucose challenge ([5]; OGTTs at 44 and 78 hours post injection, 25 nmol/kg): lower glucose excursions post an oral glucose challenge at 44 hour | Blood glucose (mg/dL) post-injection, Mean ([5]; 2 hours post-injection): 173.4 mg/dL | Blood glucose (mg/dL) post-injection, Mean ([5]; 8 hours post-injection): 81.4 mg/dL | Blood glucose (mg/dL) post-injection, Mean ([5]; 24 hours post-injection): 96.6 mg/dL | Blood glucose (mg/dL) post-injection, Mean ([5]; 48 hours post-injection): 95.8 mg/dL | Blood glucose (mg/dL) post-injection, Mean ([5]; 72 hours post-injection): 104.7 mg/dL | Blood glucose (mg/dL) post-injection, Mean ([5]; 96 hours post-injection): 141.1 mg/dL | Ki [6]: 37.3 ± 4.2 nM | Emax ([7]; HEK293): 104 ± 5% | EC50 ([7]; cAMP, 60 minute incubation, 0.25% FBS, 0.05% BSA, geometric mean, read-out: Human Gcg-R EC50, nM ± SEM, (n)): 15.3 ± 2.2 nM
